A short description of the series: Solubility (qualitative). It is filed as physicochemical.

For `CNC(=NC(N)=O)NCC1CCN(CCCC(=O)c2ccc(F)cc2)CC1` [Exemple I], the “solubilité dans les solvants organiques” value (organic solvents) is “peu soluble dans les solvants organiques”. Besides, the “solubilité dans l'eau” value (water) is “soluble dans l'eau”.

These data come from patent EP0157762B1, “NEW SUBSTITUTED PIPERIDINOGUANIDINES, PREPARATION PROCESS AND PHARMACEUTICAL COMPOSITIONS CONTAINING THEM” (BOUCHARA S.A., priority 1983, dated 1985).
